This note sets out measurements from patent publication US8076320B2, “Crystalline forms of a pharmaceutical compound” (Cephalon, Inc., priority 2004, dated 2011).

Common to all, as to type: physicochemical
Data set [1] in a line: Suspension of excess solid Compound I in solvent on a rotarmix, solid form determined by powder X-ray diffraction. The note with it: 4 days, room temperature; for solid form after storage as suspension in acetonitrile (ACN): excess solid in ACN; for solid form after storage as suspension in methanol: excess solid in methanol.
Experiment in data set [2]: as above
As for the experimental part: In the following examples are used excess of solid Compound I, i.e. compared to the solvent the amounts of solid Compound I is such that not all the solid material comes into solution. The amounts used varied between 25-50 mg solid Compound I and 2-5 ml solvent. In the present context by “solid Compound I” is meant amorphous Compound I or any of the crystalline forms of Compound I as indicated below. • (i) Excess of amorphous Compound I was added to methanol and the resulting suspension was stored on a rotarmix for 4 days at room temperature. […] After filtration the supernatant was left for evaporation of the solvent. […] Conclusion: […]

A short description of data set [3]: Light exposure of the solid compound in a Heraeus Suntest CPS+. The note with it: solid compound exposed to light for 14 h at 650W. As for the experimental part: Experiments were carried out in a Heraeus Suntest CPS+ for the crystalline forms alpha, beta and gamma where the solid compound was exposed to light for 14 h at 650W.
Setting [4] is: listed as crystalline beta form of Compound I.
The mark [5] stands for this setting: listed as crystalline alpha form of Compound I.
The mark [6] stands for this setting: listed as crystalline gamma form of Compound I.

Consider `CCSCc1ccc2c(c1)c1c3c(c4c5cc(CSCC)ccc5n5c4c1n2[C@H]1C[C@](O)(C(=O)OC)[C@]5(C)O1)CNC3=O` [beta], for which, in data set [1] (setting [4]), the “solid form after storage as suspension in acetonitrile (ACN)” value (from here on “solid form after storage … (ACN)”) is “the gamma form” and the “solid form after storage as suspension in methanol” value (“solid form … in methanol” below) is on record as “the alpha form”.
`CCSCc1ccc2c(c1)c1c3c(c4c5cc(CSCC)ccc5n5c4c1n2[C@H]1C[C@](O)(C(=O)OC)[C@]5(C)O1)CNC3=O`: the “solid form … in methanol” value in data set [2] (excess solid in methanol, rotarmix, 4 days, room temperature, powder X-ray diffraction) is given as “the major part of the solid was the gamma form”. Also, the “solid form obtained on evaporation of the filtered supernatant” value in data set [2] (methanol suspension after 4 days, filtration, supernatant left for evaporation of the solvent) is recorded as “the alpha form”.
As to `CCSCc1ccc2c(c1)c1c3c(c4c5cc(CSCC)ccc5n5c4c1n2[C@H]1C[C@](O)(C(=O)OC)[C@]5(C)O1)CNC3=O` [alpha], in data set [1] (setting [5]), the “solid form after storage … (ACN)” value is “the gamma form” and the “solid form … in methanol” value is given as “still the alpha form”.
In the case of `CCSCc1ccc2c(c1)c1c3c(c4c5cc(CSCC)ccc5n5c4c1n2[C@H]1C[C@](O)(C(=O)OC)[C@]5(C)O1)CNC3=O` [gamma], in data set [1] (setting [6]), the “solid form after storage … (ACN)” value was “still the gamma form” and the “solid form … in methanol” value is “still the gamma form”.
Regarding `CCSCc1ccc2c(c1)c1c3c(c4c5cc(CSCC)ccc5n5c4c1n2[C@H]1C[C@](O)(C(=O)OC)[C@]5(C)O1)CNC3=O` [amorphous substance], in data set [1] (listed as amorphous Compound I), the “solid form after storage … (ACN)” value is reported as “the gamma form” and the “solid form … in methanol” value is recorded as “the alpha form”. Also, the “degradation after light treatment” value in data set [3] is around 60%.
